Test results as given in PMC4894409 (Scientific Reports, 2015).
Structures can show the parent of a compound that is named as a salt. Where two headings read alike, the source gives them in different places.

How the values were obtained:
[1] = system: dopamine, noradrenaline and serotonin levels; conditions: cited from earlier work
[2] = system: mice; assay: FS test after AMPT, PCPA, PRAZ or WAY pretreatment (mechanism of antidepressant-like effect of D1); assay type: in vivo, Male Swiss mice; conditions: AMPT 100, PCPA 100, PRAZ 1 or WAY 0.3 mg/kg i.p. + Vehicle versus SAL + Vehicle, p > 0.05
Procedure: Mice were pretreated (i.p) with saline solution or AMPT 100 mg/kg (catecholamine depletor) 4 h prior to the oral administration of vehicle 10 mL/kg or D1 5 mg/kg. […] In a separate experiment, pretreatment (i.p) of mice with saline solution or PCPA 100 mg/kg (serotonin depletor) for four consecutive days prior to oral administration of vehicle or D1 5 mg/kg was used to investigate effect of serotonin depletion on antidepressant-like activity of this OAD. […] In all the four experiments, oral administration of vehicle or D1 5 mg/kg was followed by FS test (60 min interval between p.o. treatment and behavioural testing).

[3] = biological target: T1, 5-HT1A receptor (Mus musculus, UniProt Q64264); assay: [35S]GTPγS binding to mice hippocampal membranes; assay type: biochemical; conditions: for Emax: read-out: Intrinsic activity (Emax ± SEM in %)
T1 construct: The hippocampi of mice were dissected and homogenized in 5 volumes of ice-cold buffer; from tissue; host or cells: mouse hippocampus membranes
T1 sequence (Q64264 1-421): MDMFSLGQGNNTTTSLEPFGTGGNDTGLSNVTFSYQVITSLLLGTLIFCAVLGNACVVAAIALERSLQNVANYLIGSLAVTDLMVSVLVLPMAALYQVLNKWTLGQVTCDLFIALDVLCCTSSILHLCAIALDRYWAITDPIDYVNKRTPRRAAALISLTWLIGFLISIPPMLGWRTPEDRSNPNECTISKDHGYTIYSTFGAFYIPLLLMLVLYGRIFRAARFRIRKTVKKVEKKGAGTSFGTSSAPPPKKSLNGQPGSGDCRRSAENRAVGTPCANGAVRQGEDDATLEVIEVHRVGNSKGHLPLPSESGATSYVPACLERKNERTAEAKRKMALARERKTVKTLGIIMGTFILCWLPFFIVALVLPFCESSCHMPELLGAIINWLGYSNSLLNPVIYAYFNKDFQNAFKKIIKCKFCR
Procedure: The hippocampi of mice were dissected and homogenized in 5 volumes of ice-cold buffer (25 mM Tris-HCl, 0.5 mM dithiothreitol, and 0.5 mM EGTA, pH 7.4). The homogenate was centrifuged (1,000 × g for 5 min at 4 °C) and the resultant supernatant was removed. The remaining pellet was resuspended in buffer, homogenized, and centrifuged. The two supernatants obtained were combined and centrifuged at […] at 4 °C and the pellets were resuspended in membrane preparation buffer. The volumes were adjusted prior to the determination of protein concentration by Bradford method[56] and stored at −80 °C until required. […] The reactions were initiated by the addition of 25 μl [^35S]-GTPγS, followed by a 20 min incubation at 20 °C. The reactions were terminated by rapid filtration. The filters were placed in liquid scintillation cocktail in counting vials. The liquid scintillation spectroscopy was used to measure the radioactivity bound to the filter paper after 10 hour.

[4] = system: mice; assay: Forced swimming (FS) test; assay type: in vivo, Male Swiss mice
Procedure: (§1) Male Swiss mice (weighing between 25–30 g; 6–8 weeks old), provided by Central Animal House of the Federal University of Goiás, were used in all behavioural models. The experimental animals were kept in an intra-laboratory facility cage (32 × 18 × 16 cm) under controlled environmental conditions (23 ± 1 °C, 12 hr light-dark cycle) with access to food and water ad libitum. The experimental protocols (number 104/08) were approved by Ethical Committee of Federal University of Goiás in accordance to the international laws on the care and use of laboratory animals.
In the FS model, mice were randomly divided into 5 groups [control (vehicle), 3 different doses of OAD and IMI]. Mice were exposed to a modified version of FS test[48] after oral administration of vehicle, OAD (5, 10 or 20 mg/kg) or IMI 15 mg/kg. FS apparatus is a cylindrical water container (42 cm in height, 18 cm in diameter) filled with water up to 30 cm (total volume ( [drawing 1] of 7635.06 cm^3 at 24 ± 2 °C). In this model, the initial escape-directed behaviour like swimming and climbing by mouse are generally followed with a relatively passive and immobile posture. The container was cleaned with 10% ethanol solution prior to the exposure of naïve mouse. This test session (6-min duration) was videotaped and the swimming and immobility time was later scored and analyzed.

[5] = system: mice; assay: Open field (OF) test; assay type: in vivo, Male Swiss mice; conditions: for other parameters of the OF test: 5, 10, 20 mg/kg p.o., parameters not named as changed, p > 0.05
Procedure: as §1
In the OF, animals were randomly divided into six groups [control (vehicle), 3 different doses of OAD, DZP 1 or 5 mg/kg]. Animals were treated with vehicle, OAD (5, 10 or 20 mg/kg, p.o), DZP (1 or 5 mg/kg, p.o) as described in our previous work[7][49], and placed in a circular open field [base area ( [drawing 2] ) = 62.80 cm^2 which is divided into 8 equal sectors enclosed in a 50 cm high wooden wall]. The test session (5-min duration) was videotaped in a sound-proof experimental room. Parameters like total crossing, freezing time, number of grooming and rearing activity, crossing at the centre and time spent at the centre of the open field were observed and scored.

[6] = previous study; cited from earlier work
[7] = 100 mg/kg i.p. for four consecutive days
[8] = 20 mg/kg p.o., vs vehicle, p < 0.05

Compound: N[C@@H](Cc1ccc(Cl)cc1)C(=O)O (racemic) [PCPA, p-chlorophenylalanine]
- depletion of endogenous serotonin content [1, 7]: about 60%
- noradrenaline or dopamine levels [1, 7]: without altering
- animal behaviour (swimming time) after pretreatment prior to vehicle [2]: did not alter animal behaviour

Compound: CCCN(CCC)C1CCc2cccc(O)c2C1 (single isomer, unassigned; (+)) [(+) 8-OH-DPAT, 8-OH-DPAT]
- EC50 [3]: 158 nM
- Emax [3]: 94 ± 2%

Compound: CC(N)(Cc1ccc(O)cc1)C(=O)O (stereo not drawn) [AMPT, α-methyl-p-tyrosine]
- levels of serotonin ([1]; mice): without affecting
- reduction of noradrenaline levels ([1]; mice): 53%
- reduction of dopamine levels ([1]; mice, tyrosine hydroxylase inhibitor): 57%
- animal behaviour (swimming time) after pretreatment prior to vehicle [2]: did not alter animal behaviour

Compound: O=C1CC2(CCCC2)CC(=O)N1CCCCN1CCN(c2ncccn2)CC1 [Buspirone, buspirone]
- EC50 ([3]; mice hippocampal membranes, read-out: Agonist potency (pEC50 ± SEM) (converted)): 251 nM
- Emax ([3]; percentage of that produced by 10 μM (+)8-OH-DPAT): 33 ± 1%

Compound: C=C(C)C(=O)O[C@H]1CC[C@]2(C)[C@H]3CC=C4[C@@H]5CC(C)(C)CC[C@]5(C(=O)O)CC[C@@]4(C)[C@]3(C)CC[C@H]2C1(C)C [D2, Oleanolic acid methacrylate]
- immobility time in the FS test [4, 8]: reduction
- swimming time in the FS test [4, 8]: significant increase
- total crossing in the OF ([5]; 20 mg/kg p.o., vs vehicle): increase
- other parameters of the OF test [5]: not altered
- time spent at the centre of the OF ([5]; 5, 10 and 20 mg/kg p.o., vs vehicle): increase
- crossing at the centre of the OF ([5]; 10 and 20 mg/kg p.o., vs vehicle): increase

Compound: COC(=O)/C=C/C(=O)O[C@H]1CC[C@]2(C)[C@H]3CC=C4[C@@H]5CC(C)(C)CC[C@]5(C(=O)O)CC[C@@]4(C)[C@]3(C)CC[C@H]2C1(C)C [D3, Oleanolic acid methyl fumarate]
- immobility time in the FS test ([4]; 5, 10, 20 mg/kg p.o., ANOVA): did not elicit significant effect
- swimming time in the FS test ([4]; 5, 10, 20 mg/kg p.o., ANOVA): did not elicit significant effect
- number of grooming in the OF ([5]; 10 mg/kg p.o., vs vehicle): reduction
- freezing time in the OF ([5]; 20 mg/kg p.o., vs vehicle): increase
- time spent at the centre of the OF ([5]; 20 mg/kg p.o., vs vehicle): increase
- other parameters of the OF test [5]: not altered

Compound: CN1C(=O)CN=C(c2ccccc2)c2cc(Cl)ccc21 [DZP, Diazepam, reference compound]
- effect in the OF test ([5]; 1 mg/kg p.o.): anxiolytic
- effect in the OF test ([5]; 5 mg/kg p.o.): sedative like effect

Compound: CN(C)CCCN1c2ccccc2CCc2ccccc21 [IMI, imipramine, reference compound]
- effect in FS test ([4]; 15 mg/kg p.o.): antidepressant-like effect

Compound: CC1(C)CC[C@]2(C(=O)O)CC[C@]3(C)C(=CC[C@@H]4[C@@]5(C)CC[C@H](O)C(C)(C)[C@@H]5CC[C@]43C)[C@@H]2C1 [OA, Oleanolic acid]
- dependence of antidepressant-like effect on MAO activity [6]: independent of MAO activity
- effect of PCPA, AMPT, NAN, PRAZ and WAY100635 on antidepressant-like effect [6]: blockade

Compound: COc1cc2nc(N3CCN(C(=O)c4ccco4)CC3)nc(N)c2cc1OC [PRAZ, prazosin, reference compound]
- animal behaviour (swimming time) after pretreatment prior to vehicle [2]: did not alter animal behaviour

Compound: COc1ccccc1N1CCN(CCN(C(=O)C2CCCCC2)c2ccccn2)CC1 [WAY, N-{2-[4-(2-methoxyphenyl)-1-piperazinyl]ethyl}-N-2-pyridinylcyclohexane carboxamide, reference compound]
- animal behaviour (swimming time) after pretreatment prior to vehicle [2]: did not alter animal behaviour

Compound: Oleanolic acid ethyl fumarate [D4]
- swimming time in the FS test [4, 8]: significant reduction
- immobility time in the FS test ([4]; 5, 10, 20 mg/kg p.o., ANOVA): without changes
- freezing time in the OF ([5]; 20 mg/kg p.o., vs vehicle): increase
- total crossing in the OF ([5]; 20 mg/kg p.o., vs vehicle): reduction
